In patent publication US20250000834A1, “COMPOSITIONS AND METHODS FOR TARGETING GPCR FOR THE PREVENTION AND TREATMENT OF PAIN” (Duke University, priority 2021, published 2025):
Non-standard residues stand in square brackets, D forms with d. Residues, ends and D or L forms follow the SMILES beside them.

Legend:
hGPR37L1 [1] = biological target: T1, hGPR37L1 (Homo sapiens, UniProt O60883); experiment: Lipid-coated bead pull-down assay with hGPR37L1-expressing cells; type: binding; set-up: expressed in transfected cells; host or cells: HEK293 Flp-In cells; conditions: Western blot
T1 sequence (O60883 26-481): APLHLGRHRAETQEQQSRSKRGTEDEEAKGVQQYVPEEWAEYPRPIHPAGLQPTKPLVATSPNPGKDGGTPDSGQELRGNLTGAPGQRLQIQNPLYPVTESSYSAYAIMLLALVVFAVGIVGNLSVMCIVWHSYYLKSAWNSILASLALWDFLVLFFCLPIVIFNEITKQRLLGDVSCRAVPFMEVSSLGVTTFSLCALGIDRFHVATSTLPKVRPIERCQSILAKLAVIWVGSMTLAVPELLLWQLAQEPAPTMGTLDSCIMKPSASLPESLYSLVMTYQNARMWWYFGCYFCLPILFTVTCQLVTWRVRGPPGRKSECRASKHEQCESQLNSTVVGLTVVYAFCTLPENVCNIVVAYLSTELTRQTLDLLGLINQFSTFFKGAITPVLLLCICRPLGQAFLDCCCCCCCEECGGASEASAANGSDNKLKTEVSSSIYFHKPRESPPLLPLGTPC
Experimental: Lipid pull-down assay: Isolated membrane proteins were pre-adsorbed to uncoated control agarose beads (Vector Laboratories, Burlingame, CA); the unbound fraction was collected and incubated 24 hrs at 4° C. with lipid-coated agarose beads (S. Bang et al., GPR37 regulates macrophage phagocytosis and resolution of inflammatory pain. J Clin Invest 128, 3568-3582 (2018)). After extensive washing, bound proteins were eluted from the lipid-coated beads, suspended in Laemmli buffer containing 2% SDS (w/v) and 0.3-M β-mercaptoethanol (Sigma-Aldrich, St. Louis, MO), and heated 5 min at 95° C. to dissolve proteins before separation on 4-20% polyacrylamide/SDS gels as outlined above. The lysate proteins were detected by western blot.
Western blot: GPR37L1 proteins were isolated from transfected cells, lipid pull-down beads, and mouse DRG. The cells were placed on ice, washed with ice-cold phosphate-buffered saline (PBS), and harvested with ice-cold RIPA buffer (Sigma-Aldrich, St. Louis, MO) with Protease Inhibitor Cocktail Tablet (pH 7.4) (Roche Diagnostics, Indianapolis, IN). The cell lysates were centrifugated for removing insoluble debris and were calculated by BCA assay for detection of protein level, and the supernatant was mixed with 4× Laemmli buffer (Bio-Rad, Hercules, CA) and boiling. Protein samples were […] on 4-15% gradient SDS-PAGE gel (Bio-Rad, Hercules, CA) and blotted on PVDF membrane (Bio-Rad, Hercules, CA). Ponceau S staining was used for the detection of total proteins. The primary antibody was incubated with PBS+1% BSA at 4° C. overnight. We used the following primary antibodies: anti-GPR37L1 antibody (Bioss (Woburn, MA), Rabbit, 1:1000, #bs-15390R); anti-GAPDH antibody (Proteintech (Rosemont, IL), mouse, 1:2000, #60004); and anti-flag antibody (Cell Signaling Technologies (Danvers, MA), Rabbit, 1:1000, #14793). Blots were further incubated with an […] secondary anti-rabbit antibody (Jackson ImmunoResearch Laboratories (West Grove, PA), donkey, 1:5000), developed in ECL solution (Pierce Biotechnology, Appleton, WI)), and visualized in ChemiDoc XRS (Bio-Rad, Hercules, CA). Protein signal intensity was quantified by Image J software (NIH).
Next, a lipid-coated bead pull-down assay with hGPR37L1-expressing cells was used to confirm whether MaR1 would interact with GPR37L1 protein selectively. […] The right molecule size of GPR37L1 (˜50 kDa) was also validated by the anti-FLAG antibody (data not shown; see U.S. Prov. No. 63/270,198, FIG. 3E).

hGPR37L1 [2] = biological target: T1, hGPR37L1; experiment: Beta-arrestin assay (PathHunter hGPR37L1 CHO-K1); type: cell-based; conditions: hGPR37L1 ChoK1 cells, n=6; for β-arrestin signaling: 0.1 nM to 100 nM; for EC50: read-out: EC50 of β-arrestin response
Experimental: Beta-arrestin assay: To screen for GPR37L1 ligands, the PathHunter® eXpress GPR37L1 CHO-K1 kit was purchased from Eurofins Discoveryone™ (DiscoverX Solutions for Drug Discovery, Fremont, CA; Cat #93-0378E2ACP1M). CHO-K1 cells express human GPR37L1 and were grown in 96-well plates for 48 hours. Lipid compounds were incubated with the ChoK1 cells for 1 hour at 37° C., and GPR37L1 activation was determined by measuring chemiluminescence using the beta-arrestin 2 (β-arrestin) detection kit (DiscoverX Solutions for Drug Discovery, Fremont, CA). The luminescent activity was measured using an Infinite F200 Pro Illuminometer (Tecan Trading AG, Switzerland).
Eight different concentrations of compounds ranging from 0.1 nM to 100 nM were tested.

[3] = system: neuron-glia mixed cultures from DRG; experiment: IL-1β release in SGC-neuron co-cultures from DRG (ELISA); type: cell-based, mouse; conditions: 1 μM for 24 h
Experimental: SGC and neuron co-culture: DRG were collected from wild-type (WT) or knock-out (KO) mice (8 weeks male) and incubated in 1 mg/ml Collagenase/Dispase (Roche Diagnostics, Madison, WI, USA) at 37° C. for 60 min, with agitation at 100 revolutions per minute (RPM) and then followed by incubation in 0.05% trypsin/EDTA for 10 min. The digestion enzymes were prepared in Dulbecco's modified Eagle medium/F12 with GlutaMAX (ThermoFisher, Waltham, MA). After incubation of 0.1% trypsin inhibitor and centrifugation (300 G), the cell pellet was gently triturated in a neurobasal medium containing […]. Dissociated DRG cells were seeded on non-coated culture dishes for 4 hrs. SGC and neurons were included for co-culture by hand-shaking of the culture flasks gently for 5 to 10 min and then resuspended by replacing with a new neurobasal medium. The attached glial-like cells were cultured in the DMEM/F12 medium containing 10% fetal bovine serum and 1% streptomycin/penicillin to promote cell growth and inhibition of differentiation. After 2 to 6 days, the glial-like cells were differentiated by application of the serum-free neural basal medium. […]

[4] = system: Kir4.1 potassium channels in SGCs; experiment: Patch-clamp recordings of K+ currents in SGCs of whole-mount DRG; type: cell-based, mouse
Experimental: Patch-clamp recordings in SGCs of whole-mount DRG: Under urethane anesthesia, mice were rapidly euthanized, followed by careful isolation of lumbar DRGs placed in the oxygenated artificial cerebral spinal fluid (aCSF). DRGs were briefly digested (20 min) using an enzymatic mixture consisting of collagenase A (1 mg/mL) and 0.32 mL Trypsin (0.25% original solution). Intact DRG were then incubated in aCSF oxygenated with 95% O2 and 5% CO2 at 34° C. Following incubation, DRG were transferred to a recording chamber. Isolated DRGs were transferred to a recording chamber continuously perfused (˜3 ml/min) with aCSF. SGCs in whole mouse DRGs could be visualized using a 40× water-immersion objective on an Olympus BX51WI microscope (Olympus Corp., Shinjuku, Japan). The round or fusiform-shaped cell bodies of SGCs were small (<10 μm) but visible near the edges of DRG neurons. Patch pipettes (Chase Scientific Glass Inc., Ramsey, MN) were pulled and filled with a pipette solution containing: 126 mM potassium gluconate, 10 mM NaCl, 1 mM MgCl2, 10 mM EGTA, 2 mM Na-ATP, and 0.1 mM Mg-GTP, adjusted to pH 7.3 with KOH. The resistance of pipettes was 10-12 MΩ. A Whole-cell patch-clamp configuration was made on SGCs at room temperature using a Multiclamp 700B amplifier (Axon Instruments, Union City, CA). Under voltage clamp, at a holding potential of −80 mV, inward or outward currents are triggered by voltage steps of −160 to +40 mV, with 20 mV increment in 200 ms (H. Zhang et al., Altered functional properties of satellite glial cells in compressed spinal ganglia. Glia 57, 1588-1599 (2009)). To isolate inwardly rectifying potassium current (Kir), potassium currents from the same cells were recorded in the absence and presence of 100 μM extracellular barium, which blocks the Kir4.1 channel (C. A. Doupnik, et al, The inward rectifier potassium channel family. Curr Opin Neurobiol 5, 268-277 (1995); X. Tong et al., Astrocyte Kir4.1 ion channel deficits contribute to neuronal dysfunction in Huntington's disease model mice. Nat Neurosci 17, 694-703 (2014)). The Kir4.1 currents were obtained by digitally subtracting those currents in the absence and presence of barium.
Kir4.1 potassium channels are the predominant potassium channels in SGCs and are chiefly responsible for the potassium currents in SGCs. Dysregulation of SGC Kir4.1 contributes to the pathogenesis of pain (M. Hanani, D. C. Spray, Emerging importance of satellite glia in nervous system function and dysfunction. Nat Rev Neurosci 21, 485-498 (2020)). SGC K^+ currents were recorded by conducting patch-clamp recordings in SGCs in whole-mount DRG preparation (data not shown; see U.S. Prov. No. 63/270,198, FIG. 7A), collected from WT mice, Gpr37l1^+/+ mice, and Gpr37l1^+/− mutant mice (FIG. 11A parts A-C).

## CC/C=C\C/C=C\C/C=C\C/C=C\C/C=C\C/C=C\CCC(=O)O [DHA, reference compound]
hGPR37L1 [1]
  GPR37L1 binding in lipid-coated bead pull-down extracts: not binding

## CC/C=C\C[C@H](O)\C=C/C=C/C=C/[C@H](O)C/C=C\C/C=C\CCC(=O)O [NPD1, Neuroprotectin D1]
hGPR37L1 [2]
  β-arrestin signaling: 1.8 fold increase
  EC50: 1.74 nM
hGPR37L1 [1]
  GPR37L1 binding in lipid-coated bead pull-down extracts: some weak binding

## CC(=O)O[C@H]1C(=O)[C@@]2(C)[C@H]([C@H](OC(=O)c3ccccc3)[C@]3(O)C[C@H](OC(=O)[C@H](O)[C@@H](NC(=O)c4ccccc4)c4ccccc4)C(C)=C1C3(C)C)[C@]1(OC(C)=O)CO[C@@H]1C[C@@H]2O [PTX, paclitaxel, reference compound]
[3]
  IL-1β secretion in culture medium: marked increase
[4]; 1 μM, 60 min, WT-DRG
  effect on K+ currents in SGCs: substantial reduction

## CC/C=C\C[C@H](O)/C=C/C=C\C=C\C=C\[C@@H](O)[C@@H](O)C/C=C\CCC(=O)O [RvD1]
hGPR37L1 [1]
  GPR37L1 binding in lipid-coated bead pull-down extracts: not binding

## CC/C=C\C[C@H](O)[C@H](O)/C=C/C=C/C=C\C=C\[C@@H](O)C/C=C\CCC(=O)O [RvD2]
hGPR37L1 [1]
  GPR37L1 binding in lipid-coated bead pull-down extracts: not binding

## CC[C@H](C)[C@H](NC(=O)[C@H](CCC(=O)O)NC(=O)[C@H](CCC(=O)O)NC(=O)[C@@H](NC(=O)[C@H](C)NC(=O)[C@H](CC(N)=O)NC(=O)[C@H](CC(N)=O)NC(=O)[C@H](CC(=O)O)NC(=O)[C@@H](NC(=O)[C@H](CC(C)C)NC(=O)[C@@H](C)NC(=O)[C@@H](N)[C@@H](C)O)[C@@H](C)CC)[C@@H](C)O)C(=O)N[C@@H](CC(C)C)C(=O)N[C@@H](Cc1ccc(O)cc1)C(=O)O [TX14, reference compound] (H-T[dA]LIDNNATEEILY-OH; N-terminus and C-terminus assumed)
hGPR37L1 [2]
  β-arrestin signaling: 3.71 fold increase
  EC50: 9.8 nM

## Barium [reference compound]
[4]; 100 μM
  effect on total K+ currents in SGCs: largely blocked
